{"source": "patent US5571892A", "about": "“Polypeptide and anti-HIV drug prepared therefrom” (priority 1990, dated 1996)", "key": {"[1]": {"system": "human immunodeficiency virus (HIV)", "settings": "for EC 50 (concentration at which cellular affection due to HIV infection is 50% inhibited): HIV-infected MT-4 cells, MOI 0.001, 5 days, MTT method; for Anti-HIV activity SI / Anti-HIV activity EC50: Table 3; for Anti-HIV activity SI: CC50/EC50; for Anti-HIV activity EC50: tested likewise in Example 2, HIV-infected MT-4 cells", "protocol": "HIV-infected MT-4 cells (2.5×10^4 cells/well, multiplicity of infection (MOI): 0.001) immediately after the infection are added together with a test substance with various changes of the concentration to a 96-well microtiter plate. After incubation at […] for 5 days in a CO2 incubator, the number of survivor cells is measured by the MTT method [Pauwels et al.; J. Virol. Methods, 20, 309-321 (1988)]. […] On the other hand, in order to know the cytotoxicity of the test substance on the MT-4 cells, virus-non-infected cells are incubated, likewise as above, together with the test compound with various changes of the concentration. […] Further, the rough ratio of CC 50 to EC 50 (CC 50/EC 50) is expressed as an effective ratio (SI)."}, "MT-4 cells": {"system": "MT-4 cells", "assay": "Cytotoxicity on virus-non-infected MT-4 cells (MTT method)", "format": "cell-based", "settings": "for CC 50 (50% cytotoxic concentration): Table 2, virus-non-infected MT-4 cells, 5 days, MTT method", "method": "HIV-infected MT-4 cells (2.5×10^4 cells/well, multiplicity of infection (MOI): 0.001) immediately after the infection are added together with a test substance with various changes of the concentration to a 96-well microtiter plate. After incubation at 7° C. for 5 days in a CO2 incubator, the number of survivor cells is measured by the MTT method [Pauwels et al.; J. Virol. […] On the other hand, in order to know the cytotoxicity of the test substance on the MT-4 cells, virus-non-infected cells are incubated, likewise as above, together with the test compound with various changes of the concentration."}}, "note": "Where a SMILES comes first, the peptide text is derived from it.", "data": [{"compound": "CC[C@H](C)[C@@H]1NC(=O)CNC(=O)[C@H](CCCNC(=N)N)NC(=O)[C@H](Cc2ccc(O)cc2)NC(=O)[C@@H]2CSSC[C@H](NC1=O)C(=O)N[C@@H](Cc1ccc(O)cc1)C(=O)N[C@@H](CCCNC(=N)N)C(=O)N[C@@H](CCCCN)C(=O)N[C@H](C(=O)N[C@@H](CCCNC(=N)N)C(N)=O)CSSC[C@H](NC(=O)[C@H](Cc1c[nH]c3ccccc13)NC(=O)[C@@H](N)CCCNC(=N)N)C(=O)N[C@@H](Cc1ccc(O)cc1)C(=O)N[C@@H](CCCNC(=N)N)C(=O)N[C@@H](CCCCN)C(=O)N2", "note": "[Polypeptide (A)] (HELM PEPTIDE1{R.W.C.Y.R.K.C.Y.R.G.I.C.Y.R.K.C.R.[am]}$PEPTIDE1,PEPTIDE1,3:R3-16:R3|PEPTIDE1,PEPTIDE1,7:R3-12:R3$$$V2.0; N-terminus assumed)", "values": [{"measurement": "EC 50 (concentration at which cellular affection due to HIV infection is 50% inhibited)", "setting": "[1]; Table 2", "value": 0.35, "unit": "µg/mL"}, {"measurement": "SI (effective ratio, CC 50/EC 50)", "setting": "[1]; Table 2, rough ratio of CC 50 to EC 50", "value": 110}, {"measurement": "Anti-HIV activity SI", "setting": "[1]", "value": 1144}, {"measurement": "Anti-HIV activity EC50", "setting": "[1]", "value": 0.039, "unit": "µg/mL"}, {"measurement": "Concentration for antiviral activity relative to Tachyplesin I", "setting": "[1]; compared with Tachyplesin I, Table 2 data", "value": "1/50"}, {"measurement": "Cytotoxicity compared with Tachyplesin I", "setting": "MT-4 cells; MT-4 cells, Table 2 data", "value": "somewhat stronger cytotoxicity"}, {"measurement": "CC 50 (50% cytotoxic concentration)", "setting": "MT-4 cells", "value": 39, "unit": "µg/mL"}, {"measurement": "CC 50 relative to azidothymidine (times higher)", "setting": "MT-4 cells; compared with azidothymidine, Table 2 data", "value": 60, "unit": "times"}]}, {"compound": "[H][C@]12CSSC[C@]([H])(NC(=O)[C@]([H])([C@@H](C)CC)NC(=O)CNC(=O)[C@H](CCCNC(=N)N)NC(=O)[C@H](Cc3ccc(O)cc3)NC1=O)C(=O)N[C@@H](Cc1ccc(O)cc1)C(=O)N[C@@H](CCCNC(=N)N)C(=O)N[C@@H](CCCNC(=N)N)C(=O)N[C@H](C(=O)N[C@@H](CCCNC(=N)N)C(N)=O)CSSC[C@H](NC(=O)[C@H](Cc1c[nH]c3ccccc13)NC(=O)[C@@H](N)CCCCN)C(=O)N[C@@H](Cc1ccccc1)C(=O)N[C@@H](CCCNC(=N)N)C(=O)N[C@@H](C(C)C)C(=O)N2", "note": "[Tachyplesin I, reference compound] (HELM PEPTIDE1{K.W.C.F.R.V.C.Y.R.G.I.C.Y.R.R.C.R.[am]}$PEPTIDE1,PEPTIDE1,3:R3-16:R3|PEPTIDE1,PEPTIDE1,7:R3-12:R3$$$V2.0; N-terminus and C-terminus assumed; bridges inferred)", "values": [{"measurement": "EC 50 (concentration at which cellular affection due to HIV infection is 50% inhibited)", "setting": "[1]; Table 2", "value": 18.1, "unit": "µg/mL"}, {"measurement": "CC 50 (50% cytotoxic concentration)", "setting": "MT-4 cells", "value": 49, "unit": "µg/mL"}]}, {"compound": "(1): polypeptide of the invention, SEQ ID NO: 2, shown only as drawing (WCYRKCYRGICYRKCR)", "values": [{"measurement": "Anti-HIV activity SI", "setting": "[1]", "value": 30}, {"measurement": "Anti-HIV activity EC50", "setting": "[1]", "value": 6.9, "unit": "µg/mL"}]}]}
